Results: patent publication US20260285875A1, “INHIBITORS OF PARG” (858 Therapeutics, Inc., priority 2023, published 2026)

Each compound was assayed against T1, cellular PARG (Homo sapiens, UniProt Q86W56) (assay: Nuclear PAR accumulation assay (immunofluorescence high-content imaging, MMS-treated HeLa cells)). Conditions: 1 hour compound then MMS 50 μg/mL for an additional hour.
T1 construct: endogenous in cells; host or cells: HeLa
Type: cell-based
Procedure: HeLa cells were plated at 15,000 cells/well in a 96-well plate the day before compound treatment and then treated with varying concentrations of test compound and incubated for 1 hour at 37° C.+5% CO2. Following test compound treatment, methylmethane sulfonate (MMS) was added to a final concentration of 50 μg/mL and the cells were incubated for an additional hour. Following treatment, the cells were fixed with ice cold 95% methanol and the plates sealed and placed at -20° C. for 15 minutes. The cells were then washed once with phosphate buffered saline (PBS) and permeabilized with 0.10% Triton-X 100 for 20 minutes at room temperature. […] The cells were then washed three times with PBS before incubation with a fluorescently conjugated goat anti-mouse antibody (Invitrogen A32723) diluted 1:500 in 5% FBS+0.1% Tween-20+PBS for 1 hour at room temperature. The cells were again washed three times with PBS and the nuclei labeled by incubating with 1 μg/mL DAPI (4′,6-diamidino-2-phenylindole). Nuclear PAR accumulation was evaluated using high-content fluorescence microscopy. Four fields for each well were acquired at 20× magnification resulting in at least 1,000 cells analyzed per well. […] Both the average intensity per nucleus and percent PAR positive cells were quantified. […] Concentration-response-curves and IC50 values were generated using four parameter logistic curve fit software.
Representative data for exemplary compounds is presented in Table 32, Table 33 and Table 34.

T1 sequence (Q86W56 whole entry): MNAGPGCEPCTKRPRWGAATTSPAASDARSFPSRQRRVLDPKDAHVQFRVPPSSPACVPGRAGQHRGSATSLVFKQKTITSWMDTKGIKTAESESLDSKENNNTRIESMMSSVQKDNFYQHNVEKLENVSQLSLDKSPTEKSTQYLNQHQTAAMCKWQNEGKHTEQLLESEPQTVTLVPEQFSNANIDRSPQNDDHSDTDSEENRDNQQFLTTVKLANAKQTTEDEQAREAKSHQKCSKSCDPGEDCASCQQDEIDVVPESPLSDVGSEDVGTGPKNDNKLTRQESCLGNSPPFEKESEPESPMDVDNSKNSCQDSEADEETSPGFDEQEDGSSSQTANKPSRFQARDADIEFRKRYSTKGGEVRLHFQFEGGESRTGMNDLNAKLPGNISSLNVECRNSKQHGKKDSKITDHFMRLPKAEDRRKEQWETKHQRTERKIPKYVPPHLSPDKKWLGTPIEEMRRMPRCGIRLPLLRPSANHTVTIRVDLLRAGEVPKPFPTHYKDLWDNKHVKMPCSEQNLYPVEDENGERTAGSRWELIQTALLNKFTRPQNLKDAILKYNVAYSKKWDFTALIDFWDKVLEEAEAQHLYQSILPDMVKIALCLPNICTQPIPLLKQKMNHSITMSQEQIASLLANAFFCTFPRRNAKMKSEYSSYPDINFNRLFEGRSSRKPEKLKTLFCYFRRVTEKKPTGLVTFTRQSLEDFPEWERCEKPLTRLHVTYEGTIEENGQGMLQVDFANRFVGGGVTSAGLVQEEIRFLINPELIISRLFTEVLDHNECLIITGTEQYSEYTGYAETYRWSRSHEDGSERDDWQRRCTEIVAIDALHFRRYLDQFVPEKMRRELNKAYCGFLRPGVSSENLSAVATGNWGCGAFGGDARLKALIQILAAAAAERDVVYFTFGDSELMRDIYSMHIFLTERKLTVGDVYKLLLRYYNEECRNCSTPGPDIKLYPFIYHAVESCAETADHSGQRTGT

SMILES | IC50 [nM]
Cn1cc(CN2C(=O)c3cc(S(=O)(=O)NC4(C)CC4)cc(Br)c3N3CCN=C23)cn1 [Example 18, 9-bromo-4-((1-methyl-1H-pyrazol-4-yl)methyl)-N-(1-methylcyclopropyl)-5-oxo-1,2,4,5-tetrahydroimidazo[1,2-a]quinazoline-7-sulfonamide] | 100 to 1000
CC(C)OC[C@@H]1CN=C2N(Cc3cnn(C)c3)C(=O)c3cc(S(=O)(=O)NC4(C)CC4)ccc3N21 [Example 19, (S)-1-(isopropoxymethyl)-4-((1-methyl-1H-pyrazol-4-yl)methyl)-N-(1-methylcyclopropyl)-5-oxo-1,2,4,5-tetrahydroimidazo[1,2-a]quinazoline-7-sulfonamide] | < 100
Cc1cc(F)ccc1-c1cc(S(=O)(=O)NC2(C)CC2)cc2c1N1CCN=C1N(Cc1cnn(C)c1)C2=O [Example 20, 9-(4-fluoro-2-methylphenyl)-4-((1-methyl-1H-pyrazol-4-yl)methyl)-N-(1-methylcyclopropyl)-5-oxo-1,2,4,5-tetrahydroimidazo[1,2-a]quinazoline-7-sulfonamide] | < 100
Cn1cc(CN2C(=O)c3cc(S(=O)(=O)NC4(C)CC4)cc(-c4ccc(Cl)cc4)c3N3CCN=C23)cn1 [Example 21, 9-(4-chlorophenyl)-4-((1-methyl-1H-pyrazol-4-yl)methyl)-N-(1-methylcyclopropyl)-5-oxo-1,2,4,5-tetrahydroimidazo[1,2-a]quinazoline-7-sulfonamide] | 100 to 1000
C[C@@H]1CN=C2N(Cc3cnn(C)c3)C(=O)c3cc(S(=O)(=O)NC4(C)CC4)cc(C4CCN(C)CC4)c3N21 [Example 22, (R)-1-methyl-4-((1-methyl-1H-pyrazol-4-yl)methyl)-N-(1-methylcyclopropyl)-9-(1-methylpiperidin-4-yl)-5-oxo-1,2,4,5-tetrahydroimidazo[1,2-a]quinazoline-7-sulfonamide] | 100 to 1000
C[C@@H]1CN=C2N(Cc3cn(C)nc3C(F)(F)F)C(=O)c3cc(S(=O)(=O)NC4(C)CC4)cc(Br)c3N21 [Example 23, (R)-9-bromo-1-methyl-4-((1-methyl-3-(trifluoromethyl)-1H-pyrazol-4-yl)methyl)-N-(1-methylcyclopropyl)-5-oxo-1,2,4,5-tetrahydroimidazo[1,2-a]quinazoline-7-sulfonamide] | < 100
C[C@@H]1CN=C2N(Cc3cn(C)nc3C(F)F)C(=O)c3cc(S(=O)(=O)NC4(C)CC4)ccc3N21 [Example 24, (R)-4-((3-(difluoromethyl)-1-methyl-1H-pyrazol-4-yl)methyl)-1-methyl-N-(1-methylcyclopropyl)-5-oxo-1,2,4,5-tetrahydroimidazo[1,2-a]quinazoline-7-sulfonamide] | < 100
Cc1cc(F)ccc1-c1cc(S(=O)(=O)NC2(C)CC2)cc2c1N1CC(C)(C)N=C1N(Cc1cnn(C)c1)C2=O [Example 25, 9-(4-fluoro-2-methylphenyl)-2,2-dimethyl-4-((1-methyl-1H-pyrazol-4-yl)methyl)-N-(1-methylcyclopropyl)-5-oxo-1,2,4,5-tetrahydroimidazo[1,2-a]quinazoline-7-sulfonamide] | < 100
Cn1cc(CN2C(=O)c3cc(S(=O)(=O)NC4(C)CC4)cc(C4=CCCC4)c3N3CCN=C23)cn1 [Example 26, 9-(cyclopent-1-en-1-yl)-4-((1-methyl-1H-pyrazol-4-yl)methyl)-N-(1-methylcyclopropyl)-5-oxo-1,2,4,5-tetrahydroimidazo[1,2-a]quinazoline-7-sulfonamide] | 100 to 1000
C[C@@H]1CN=C2N(Cc3cnn(C)c3)C(=O)c3cc(S(=O)(=O)NC4(C)CC4)cc(N4CCC(O)CC4)c3N21 [Example 27, (R)-9-(4-hydroxypiperidin-1-yl)-1-methyl-4-((1-methyl-1H-pyrazol-4-yl)methyl)-N-(1-methylcyclopropyl)-5-oxo-1,2,4,5-tetrahydroimidazo[1,2-a]quinazoline-7-sulfonamide] | 100 to 1000
Cn1cc(CN2C(=O)c3cc(S(=O)(=O)NC4(C)CC4)ccc3N3C2=NC[C@H]3COc2ccccc2)cn1 [Example 28, (S)-4-((1-methyl-1H-pyrazol-4-yl)methyl)-N-(1-methylcyclopropyl)-5-oxo-1-(phenoxymethyl)-1,2,4,5-tetrahydroimidazo[1,2-a]quinazoline-7-sulfonamide] | < 100

Other lines, results leading:

IC50 [nM] | SMILES
< 100 | Cn1cc(CN2C(=O)c3cc(S(=O)(=O)NC4(C)CC4)ccc3N3C2=NC[C@H]3COc2ccc(F)cc2)cn1 [Example 29, (S)-1-((4-fluorophenoxy)methyl)-4-((1-methyl-1H-pyrazol-4-yl)methyl)-N-(1-methylcyclopropyl)-5-oxo-1,2,4,5-tetrahydroimidazo[1,2-a]quinazoline-7-sulfonamide]
< 100 | Cn1cc(CN2C(=O)c3cc(S(=O)(=O)NC4(C)CC4)ccc3N3C2=NC[C@H]3COc2cccc(F)c2)cn1 [Example 30, (S)-1-((3-fluorophenoxy)methyl)-4-((1-methyl-1H-pyrazol-4-yl)methyl)-N-(1-methylcyclopropyl)-5-oxo-1,2,4,5-tetrahydroimidazo[1,2-a]quinazoline-7-sulfonamide]
< 100 | CN(C)CC#C[C@@H]1CN=C2N(Cc3cnn(C)c3)C(=O)c3cc(S(=O)(=O)NC4(C)CC4)ccc3N21 [Example 31, (R)-1-(3-(dimethylamino)prop-1-yn-1-yl)-4-((1-methyl-1H-pyrazol-4-yl)methyl)-N-(1-methylcyclopropyl)-5-oxo-1,2,4,5-tetrahydroimidazo[1,2-a]quinazoline-7-sulfonamide]
< 100 | Cc1cc(F)ccc1-c1cc(S(=O)(=O)NC2(C)CC2)cc2c1N1C(=NC[C@H]1C)N(Cc1cnn(C)c1)C2=O [Example 32, (R)-9-(4-fluoro-2-methylphenyl)-1-methyl-4-((1-methyl-1H-pyrazol-4-yl)methyl)-N-(1-methylcyclopropyl)-5-oxo-1,2,4,5-tetrahydroimidazo[1,2-a]quinazoline-7-sulfonamide]
< 100 | C[C@@H]1CN=C2N(C)C(=O)c3cc(S(=O)(=O)NC4(C)CC4)cc(N4CCN(C(=O)N(C)C)CC4)c3N21 [Example 33, (R)-4-(1,4-dimethyl-7-(N-(1-methylcyclopropyl)sulfamoyl)-5-oxo-1,2,4,5-tetrahydroimidazo[1,2-a]quinazolin-9-yl)-N,N-dimethylpiperazine-1-carboxamide]
< 100 | CN1C(=O)c2cc(S(=O)(=O)NC3(C)CC3)cc(Br)c2N2C1=NC[C@H]2C#CC1CC1 [Example 34, (R)-9-bromo-1-(cyclopropylethynyl)-4-methyl-N-(1-methylcyclopropyl)-5-oxo-1,2,4,5-tetrahydroimidazo[1,2-a]quinazoline-7-sulfonamide]
< 100 | Cn1cc(C#C[C@@H]2CN=C3N(Cc4cnn(C)c4)C(=O)c4cc(S(=O)(=O)NC5(C)CC5)ccc4N32)cn1 [Example 35, (R)-1-((1-methyl-1H-pyrazol-4-yl)ethynyl)-4-((1-methyl-1H-pyrazol-4-yl)methyl)-N-(1-methylcyclopropyl)-5-oxo-1,2,4,5-tetrahydroimidazo[1,2-a]quinazoline-7-sulfonamide]
< 100 | Cn1cc(CN2C(=O)c3cc(S(=O)(=O)NC4(C)CC4)ccc3N3C2=NC[C@H]3C#Cc2ccccc2)cn1 [Example 36, (R)-4-((1-methyl-1H-pyrazol-4-yl)methyl)-N-(1-methylcyclopropyl)-5-oxo-1-(phenylethynyl)-1,2,4,5-tetrahydroimidazo[1,2-a]quinazoline-7-sulfonamide]
100 to 1000 | C[C@@H]1CN=C2N(Cc3cnn(C)c3)C(=O)c3cc(S(=O)(=O)NC4(C)CC4)cc(N4CCC(C(=O)N(C)C)CC4)c3N21 [Example 37, (R)-N,N-dimethyl-1-(1-methyl-4-((1-methyl-1H-pyrazol-4-yl)methyl)-7-(N-(1-methylcyclopropyl)sulfamoyl)-5-oxo-1,2,4,5-tetrahydroimidazo[1,2-a]quinazolin-9-yl)piperidine-4-carboxamide]
< 100 | C#C[C@@H]1CN=C2N(C)C(=O)c3cc(S(=O)(=O)NC4(C)CC4)cc(Br)c3N21 [Example 38, (R)-9-bromo-1-ethynyl-4-methyl-N-(1-methylcyclopropyl)-5-oxo-1,2,4,5-tetrahydroimidazo[1,2-a]quinazoline-7-sulfonamide]
< 100 | Cn1cc(CN2C(=O)c3cc(S(=O)(=O)NC4(C)CC4)ccc3N3C2=NC[C@H]3CC(F)(F)F)cn1 [Example 39, (R)-4-((1-methyl-1H-pyrazol-4-yl)methyl)-N-(1-methylcyclopropyl)-5-oxo-1-(2,2,2-trifluoroethyl)-1,2,4,5-tetrahydroimidazo[1,2-a]quinazoline-7-sulfonamide]
< 100 | Cn1cc(CN2C(=O)c3cc(S(=O)(=O)NC4(C)CC4)ccc3N3C2=NC[C@H]3/C=C/c2ccccc2)cn1 [Example 40, (R,E)-4-((1-methyl-1H-pyrazol-4-yl)methyl)-N-(1-methylcyclopropyl)-5-oxo-1-styryl-1,2,4,5-tetrahydroimidazo[1,2-a]quinazoline-7-sulfonamide]
100 to 1000 | C[C@@H]1CN=C2N(Cc3cnn(C)c3)C(=O)c3cc(S(=O)(=O)NC4(C)CC4)sc3N21 [Example 41, (R)-8-methyl-5-((1-methyl-1H-pyrazol-4-yl)methyl)-N-(1-methylcyclopropyl)-4-oxo-4,5,7,8-tetrahydroimidazo[1,2-a]thieno[3,2-e]pyrimidine-2-sulfonamide]
